Measured values from patent US11530208B2, “Imidazo[4,5-C]pyridine derived SSAO inhibitors” (PROXIMAGEN, LLC, priority 2014, dated 2022).

How the values were obtained:
[1] = molecular target: human SSAO (Homo sapiens (Human), UniProt Q16853); assay: SSAO enzyme inhibition assay; format: biochemical; details: purified recombinantly expressed human SSAO, benzylamine substrate, RT
Description: All primary assays were performed at RT. with purified recombinantly expressed human SSAO. Enzyme was prepared essentially as described in Öhman et al. (Protein Expression and Purification 46 (2006) 321-331). In addition, secondary- and selectivity assays were performed using SSAO prepared from various tissues or purified rat recombinant SSAO. The enzyme activity was assayed with benzylamine as substrate by measuring either benzaldehyde production, using ^14C-labeled substrate, or by utilizing the production of hydrogen peroxide in a horseradish peroxidase (HRP) coupled reaction. Briefly, test compounds were dissolved in dimethyl sulfoxide (DMSO) to a concentration of 10 mM. Dose-response measurements were assayed by either creating 1:10 serial dilutions in DMSO to produce a 7 point curve or by making 1:3 serial dilutions in DMSO to produce 11 point curves. The top concentrations were adjusted depending on the potency of the compounds and subsequent dilution in reaction buffer yielded a final DMSO concentration ≤2%.
In a horseradish peroxidase (HRP) coupled reaction, hydrogen peroxide oxidation of 10-acetyl-3,7-dihydroxyphenoxazine produced resorufin, which is a highly fluorescent compound (Zhout and Panchuk-Voloshina. Analytical Biochemistry 253 (1997) 169-174; Amplex® Red Hydrogen Peroxide/peroxidase Assay kit, Invitrogen A22188). Enzyme and compounds in 50 mM sodium phosphate, pH 7.4 were set to pre-incubate in flat-bottomed microtiter plates for approximately 15 min before initiating the reaction by addition of a mixture of HRP, benzylamine and Amplex reagent. Benzylamine concentration was fixed at a concentration corresponding to the Michaelis constant, determined using standard procedures. Fluorescence intensity was then measured at several time points during 1-2 h, exciting at 544 nm and reading the emission at 590 nm. For the human SSAO assay final concentrations of the reagents in the assay wells were: SSAO enzyme 1 ug/mL, benzylamine 100 uM, Amplex reagent 20 uM, HRP 0.1 U/mL and varying concentrations of test compound. The inhibition was measured as % decrease of the signal compared to a control without inhibitor (only diluted DMSO). The background signal from a sample containing no SSAO enzyme was subtracted from all data points. Data was fitted to a four parameter logistic model and IC50 values were calculated using the GraphPad Prism 4 or XLfit 4 programs.
SSAO activity was assayed using 14C-labeled benzylamine and analysed by measuring radioactive benzaldehyde. In a white 96-well optiplate (Packard), 20 uL of diluted test compound was pre-incubated at RT with 20 uL SSAO enzyme for approximately 15 min with continuous agitation. All dilutions were made with PBS. The reaction was initiated by adding 20 uL of the benzylamine substrate solution containing [7-14C] Benzylamine hydrochloride (CFA589, GE Healthcare). The plate was incubated for 1 h as above after which the reaction was stopped by acidification (10 uL 1M aq HCl). Then 90 uL Micro Scint-E solution (Perkin-Elmer) was added to each well and the plate was continuously mixed for 15 min. Phase separation occurred instantly and activity was read in a Topcount scintillation counter (Perkin-Elmer). In the final reaction well, the human recombinant SSAO concentration was 10 ug/mL. In order to optimize sensitivity, the substrate concentration was decreased as compared to the HRP coupled assay in order to get a higher fraction of radioactive product. In the human SSAO assay, benzylamine concentration was 40 uM (0.2 uCi/mL). Data was analysed as above.

[2] = molecular target: human ether a go-go related gene (hERG) K+ channel (Homo sapiens (Human), UniProt Q12809); assay: hERG assay, IonWorks patch clamp electrophysiology; format: cell-based; details: Chinese Hamster Lung cell line stably expressing hERG, max concentration 11 uM
Chain of human ether a go-go related gene (hERG) K+ channel (Q12809 whole entry): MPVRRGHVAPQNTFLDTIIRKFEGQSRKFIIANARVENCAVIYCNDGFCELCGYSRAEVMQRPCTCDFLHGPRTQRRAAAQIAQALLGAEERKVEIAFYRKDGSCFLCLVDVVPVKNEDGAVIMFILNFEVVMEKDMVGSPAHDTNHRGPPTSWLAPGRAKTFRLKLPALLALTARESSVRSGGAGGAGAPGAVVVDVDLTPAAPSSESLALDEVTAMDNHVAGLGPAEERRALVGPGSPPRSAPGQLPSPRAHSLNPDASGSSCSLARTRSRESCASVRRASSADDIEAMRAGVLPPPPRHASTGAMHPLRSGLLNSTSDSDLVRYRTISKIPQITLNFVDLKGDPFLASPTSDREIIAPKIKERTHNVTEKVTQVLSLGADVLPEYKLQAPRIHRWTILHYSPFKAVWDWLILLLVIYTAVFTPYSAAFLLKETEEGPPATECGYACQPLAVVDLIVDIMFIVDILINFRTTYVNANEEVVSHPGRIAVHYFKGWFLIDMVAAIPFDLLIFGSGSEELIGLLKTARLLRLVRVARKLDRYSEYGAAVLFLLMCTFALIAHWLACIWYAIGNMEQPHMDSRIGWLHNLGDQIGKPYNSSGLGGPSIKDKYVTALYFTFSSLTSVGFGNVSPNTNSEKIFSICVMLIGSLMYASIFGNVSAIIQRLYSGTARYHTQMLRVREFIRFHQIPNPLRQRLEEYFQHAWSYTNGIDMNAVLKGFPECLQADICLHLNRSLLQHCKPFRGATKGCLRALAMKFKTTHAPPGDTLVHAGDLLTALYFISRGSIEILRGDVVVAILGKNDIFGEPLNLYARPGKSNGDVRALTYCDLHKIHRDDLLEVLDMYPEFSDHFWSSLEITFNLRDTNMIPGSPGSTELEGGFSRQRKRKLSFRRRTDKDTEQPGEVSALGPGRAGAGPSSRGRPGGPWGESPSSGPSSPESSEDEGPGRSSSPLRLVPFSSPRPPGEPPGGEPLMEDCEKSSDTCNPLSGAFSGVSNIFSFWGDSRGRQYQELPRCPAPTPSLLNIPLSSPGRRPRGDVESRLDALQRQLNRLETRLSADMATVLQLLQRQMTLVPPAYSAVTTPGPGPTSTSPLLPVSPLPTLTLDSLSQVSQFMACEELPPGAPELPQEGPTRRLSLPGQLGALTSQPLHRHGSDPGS
Description: Compounds of the invention were tested for inhibition of the human ether a go-go related gene (hERG) K^+ channel using IonWorks patch clamp electrophysiology. 8 Point concentration-response curves were generated on two occasions using 3-fold serial dilutions from the maximum assay concentration (11 uM). Electrophysiological recordings were made from a Chinese Hamster Lung cell line stably expressing the full length hERG channel. Single cell ion currents were measured in the perforated patch clamp configuration (100 ug/mL amphoterocin) at RT using an IonWorks Quattro instrument. The internal solution contained 140 mM KCl, 1 mM MgCl2, 1 mM EGTA and 20 mM HEPES and was buffered to pH 7.3. The external solution contained 138 mM NaCl, 2.7 mM KCl, 0.9 mM CaCl2, 0.5 mM MgCl2, 8 mM Na2HPO4 and 1.5 mM KH2PO4, and was buffered to pH 7.3. Cells were clamped at a holding potential of […] for 30 s and then stepped to +40 mV for 1 s. This was followed by a hyperpolarising step of 1 s to […] to evoke the hERG tail current. This sequence was repeated 5 times at a frequency of 0.25 Hz. Currents were measured from the tail step at the 5th pulse, and referenced to the holding current. Compounds were incubated for 6-7 min prior to a second measurement of the hERG signal using an identical pulse train. A minimum of 17 cells were required for each pIC50 curve fit. […]

Chain of human SSAO (Q16853 29-763): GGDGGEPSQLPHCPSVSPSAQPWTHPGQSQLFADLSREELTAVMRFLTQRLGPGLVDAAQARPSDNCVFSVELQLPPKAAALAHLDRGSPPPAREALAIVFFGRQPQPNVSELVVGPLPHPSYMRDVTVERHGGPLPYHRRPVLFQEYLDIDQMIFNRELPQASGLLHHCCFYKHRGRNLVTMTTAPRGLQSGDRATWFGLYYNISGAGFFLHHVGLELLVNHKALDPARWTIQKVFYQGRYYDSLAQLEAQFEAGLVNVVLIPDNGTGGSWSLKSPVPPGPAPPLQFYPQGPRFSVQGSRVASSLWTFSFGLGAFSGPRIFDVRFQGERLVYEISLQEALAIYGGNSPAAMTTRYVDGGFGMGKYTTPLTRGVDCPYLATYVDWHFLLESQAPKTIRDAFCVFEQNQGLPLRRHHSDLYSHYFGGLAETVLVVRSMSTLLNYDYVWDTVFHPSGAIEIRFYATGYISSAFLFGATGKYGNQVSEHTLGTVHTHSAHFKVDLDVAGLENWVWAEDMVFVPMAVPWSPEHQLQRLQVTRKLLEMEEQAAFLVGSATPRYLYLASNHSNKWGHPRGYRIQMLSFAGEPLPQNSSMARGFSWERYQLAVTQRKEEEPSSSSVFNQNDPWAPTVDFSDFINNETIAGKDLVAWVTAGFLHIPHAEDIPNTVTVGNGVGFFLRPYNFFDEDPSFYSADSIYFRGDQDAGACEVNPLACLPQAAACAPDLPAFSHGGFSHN

IC50 [1] [nM]	SMILES	IC50 [2] [nM]
50 to 200	O=C1Cc2cc(-c3nc4ccncc4n3-c3ccc(F)cc3)ccc2N1 [Example 1, 5-[3-(4-Fluorophenyl)-3H-imidazo[4,5-c]pyridin-2-yl]-2,3-dihydro-1H-indol-2-one]	–
200 to 500	Fc1ccc(-n2c(-c3ccc4nc[nH]c4c3)nc3ccncc32)cc1 [Example 2, 5-[3-(4-Fluorophenyl)-3H-imidazo[4,5-c]pyridin-2-yl]-1H-1,3-benzodiazole]	–
< 50	CC(C)(O)CNc1ncc(-c2nc3ccncc3n2-c2ccc(F)cc2)cn1 [Example 3, 1-({5-[3-(4-Fluorophenyl)-3H-imidazo[4,5-c]pyridin-2-yl]pyrimidin-2-yl}amino)-2-methylpropan-2-ol]	> 10000
< 50	Cc1ccc(-n2c(-c3cnc(NCC(C)(C)O)nc3)nc3ccncc32)cc1 [Example 4, 2-Methyl-1-({5-[3-(4-methylphenyl)-3H-imidazo[4,5-c]pyridin-2-yl]pyrimidin-2-yl}amino)propan-2-ol]	–
< 50	Clc1ccc(-n2c(C3CCN(c4ccncc4)CC3)nc3ccncc32)cc1 [Example 5, 4-{4-[3-(4-Chlorophenyl)-3H-imidazo[4,5-c]pyridin-2-yl]piperidin-1-yl}pyridine; bis(formic acid)]	10 to 1000
200 to 500	O=c1cc(N2CCC(c3nc4ccncc4n3-c3ccc(Cl)cc3)CC2)nc[nH]1 [Example 6, 6-{4-[3-(4-Chlorophenyl)-3H-imidazo[4,5-c]pyridin-2-yl]piperidin-1-yl}-3,4-dihydropyrimidin-4-one]	–
200 to 500	Clc1ccc(-n2c(Cc3cccnc3)nc3ccncc32)cc1 [Example 7, 3-{[3-(4-Chlorophenyl)-3H-imidazo[4,5-c]pyridin-2-yl]methyl}pyridine; bis(formic acid)]	–
200 to 500	Clc1ccc(-n2c(CCCn3ccnc3)nc3ccncc32)cc1 [Example 8, 1-{3-[3-(4-chlorophenyl)-3H-imidazo[4,5-c]pyridin-2-yl]propyl}-1H-imidazole]	–
200 to 500	O=C(NCC1CCOCC1)c1nc2ccncc2n1-c1ccc(F)cc1 [Example 9, 3-(4-Fluorophenyl)-N-(oxan-4-ylmethyl)-3H-imidazo[4,5-c]pyridine-2-carboxamide]	–
